Target: APJ receptor (Homo sapiens (Human), UniProt P35414)
Assay: [35S]GTPγS binding assay on membranes from CHO cells stably expressing human APJ receptor
Format: biochemical
Details: membranes of CHO cells stably expressing human APJ receptor, means of several independent experiments, read-out: Activity hAPJ SPA EC50 IP
In short: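 EC50 values were obtained by non-linear regression of [35S]GTPγS (0.2 nM) binding after 90 min at RT, with nonspecific binding defined by 100 μM GTPγS. Reactions used human APJ–expressing CHO cell membranes on WGA PS beads in HEPES pH 7.5 buffer with 5 mM MgCl2, 200 mM NaCl, 3 μM GDP and 0.1% BSA.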

Chain of APJ receptor (P35414 whole entry): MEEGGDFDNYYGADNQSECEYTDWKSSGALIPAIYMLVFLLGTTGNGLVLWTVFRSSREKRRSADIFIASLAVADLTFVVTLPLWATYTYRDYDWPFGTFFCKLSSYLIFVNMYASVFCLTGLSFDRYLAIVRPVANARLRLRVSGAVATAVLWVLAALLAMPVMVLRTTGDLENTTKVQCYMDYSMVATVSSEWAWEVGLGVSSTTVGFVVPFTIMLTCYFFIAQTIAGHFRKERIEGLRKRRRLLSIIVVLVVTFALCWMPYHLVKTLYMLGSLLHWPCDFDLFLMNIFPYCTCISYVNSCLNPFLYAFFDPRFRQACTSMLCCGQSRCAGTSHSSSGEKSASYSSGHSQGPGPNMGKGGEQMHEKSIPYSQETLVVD

Compound | EC50
COc1cccc(OC)c1-n1c(NS(=O)(=O)[C@H](CCO)Cc2ncc(C)cn2)nnc1-c1ccc(C)o1 [Example 80.0] | 1.1 nM
CCc1ccc(-c2nnc(NS(=O)(=O)CCc3ncc(F)cn3)n2-c2c(OC)cccc2OC)o1 [Example 98.0, N-(4-(2,6-dimethoxyphenyl)-5-(5-ethyl-2-furanyl)-4H-1,2,4-triazol-3-yl)-2-(5-fluoro-2-pyrimidinyl)ethanesulfonamide] | 0.45 nM
COc1cccc(OC)c1-n1c(NS(=O)(=O)[C@H](C)[C@@H](C)c2ncc(F)cn2)nnc1-c1ccc(C)o1 [Example 109.0] | 0.87 nM
COc1cccc(OC)c1-n1c(NS(=O)(=O)[C@@H](C)[C@@H](C)c2ncc(F)cn2)nnc1-c1ccc(C)o1 [Example 110.0] | 0.97 nM
COc1cccc(OC)c1-n1c(NS(=O)(=O)CCc2ccc(F)cc2C#N)nnc1-c1ccc(C)o1 [Example 119.0, 2-(2-Cyano-4-fluorophenyl)-N-(4-(2,6-dimethoxyphenyl)-5-(5-methylfuran-2-yl)-4H-1,2,4-triazol-3-yl)ethanesulfonamide] | 0.15 nM
COCCO[C@H](c1ncc(C)cn1)[C@H](C)S(=O)(=O)Nc1nnc(-c2ccc(C)o2)n1-c1c(OC)cccc1OC [Example 120.0, (1R,2S)—N-(4-(2,6-Dimethoxyphenyl)-5-(5-methylfuran-2-yl)-4H-1,2,4-triazol-3-yl)-1-(2-methoxyethoxy)-1-(5-methylpyrimidin-2-yl)propane-2-sulfonamide] | 0.15 nM
COc1cccc(OC)c1-n1c(NS(=O)(=O)CCc2ncc(F)cn2)nnc1-c1ccc(C)o1 [Example 125.0, N-(4-(2,6-Dimethoxyphenyl)-5-(5-methylfuran-2-yl)-4H-1,2,4-triazol-3-yl)-2-(5-fluoropyrimidin-2-yl)ethanesulfonamide] | 0.34 nM
CC[C@H](Cc1ncc(F)cn1)S(=O)(=O)Nc1nnc(-c2ccc(C)o2)n1-c1c(OC)cccc1OC [Example 128.0, (R)-N-(4-(2,6-dimethoxyphenyl)-5-(5-methylfuran-2-yl)-4H-1,2,4-triazol-3-yl)-1-(5-fluoropyrimidin-2-yl)butane-2-sulfonamide and (R)-N-(4-(2,6-dimethoxyphenyl)-5-(5-methylfuran-2-yl)-4H-1,2,4-triazol-3-yl)-1-(5-fluoropyrimidin-2-yl)butane-2-sulfonamide] | 1.1 nM
COc1cccc(OC)c1-n1c(NS(=O)(=O)CCc2ccc(F)cc2C#N)nnc1-c1ccc(C(F)(F)F)o1 [Example 131.0, 2-(2-Cyano-4-fluorophenyl)-N-(4-(2,6-dimethoxyphenyl)-5-(5-(trifluoromethyl)furan-2-yl)-4H-1,2,4-triazol-3-yl)ethanesulfonamide] | 3.9 nM
COc1cccc(OC)c1-n1c(NS(=O)(=O)[C@@H](C)[C@H](C)c2cnc(C)cn2)nnc1-c1ccc(C)o1 [Example 148.0, (2S,3R)—N-(4-(2,6-Dimethoxyphenyl)-5-(5-methyl-2-furanyl)-4H-1,2,4-triazol-3-yl)-3-(5-methyl-2-pyrazinyl)-2-butanesulfonamide] | 0.19 nM
CCOC(=O)[C@@H]1C[C@@H](S(=O)(=O)Nc2nnc(-c3ccco3)n2-c2c(OC)cccc2OC)CN(c2ncc(F)cn2)C1 [Example 158.0, Ethyl (3R,5R)-5-((4-(2,6-dimethoxyphenyl)-5-(2-furanyl)-4H-1,2,4-triazol-3-yl)sulfamoyl)-1-(5-fluoro-2-pyrimidinyl)-3-piperidinecarboxylate or ethyl (3S,5S)-5-((4-(2,6-dimethoxyphenyl)-5-(2-furanyl)-4H-1,2,4-triazol-3-yl)sulfamoyl)-1-(5-fluoro-2-pyrimidinyl)-3-piperidinecarboxylate] | 0.4 nM
COc1ccccc1-n1c(NS(=O)(=O)[C@@H](C)[C@H](C)c2ncc(F)cn2)nnc1-c1ccc(C)o1 [Example 172.0, (2S,3R)-3-(5-Fluoro-2-pyrimidinyl)-N-(4-(2-methoxyphenyl)-5-(5-methyl-2-furanyl)-4H-1,2,4-triazol-3-yl)-2-butanesulfonamide] | 1.2 nM
Cc1ccc(-c2nnc(NS(=O)(=O)[C@@H](C)[C@H](C)c3ncc(F)cn3)n2C2CCOCC2)o1 [Example 182.0, (2S,3R)-3-(5-Fluoro-2-pyrimidinyl)-N-(5-(5-methyl-2-furanyl)-4-(tetrahydro-2H-pyran-4-yl)-4H-1,2,4-triazol-3-yl)-2-butanesulfonamide] | 26 nM
COc1c(Br)cc(Br)c(OC)c1-n1c(NS(=O)(=O)[C@@H](C)[C@H](C)c2ncc(F)cn2)nnc1-c1ccc(C)o1 [Example 189.0, (2S,3R)—N-(4-(3,5-Dibromo-2,6-dimethoxyphenyl)-5-(5-methyl-2-furanyl)-4H-1,2,4-triazol-3-yl)-3-(5-fluoro-2-pyrimidinyl)-2-butanesulfonamide] | 110 nM
COc1cccc(OC)c1-n1c(NS(=O)(=O)[C@H]2CCCN(c3ncc(F)cn3)C2)nnc1-c1ccco1 [Example 206.0, (3S)—N-(4-(2,6-Dimethoxyphenyl)-5-(2-furanyl)-4H-1,2,4-triazol-3-yl)-1-(5-fluoro-2-pyrimidinyl)-3-piperidinesulfonamide] | 4.8 nM
COc1cccc(OC)c1-n1c(NS(=O)(=O)[C@H](C)[C@@H](O)c2ncc(F)cn2)nnc1-c1ccc(C)o1 [Example 211.0, (1S,2R)-N-(4-(2,6-dimethoxyphenyl)-5-(5-methylfuran-2-yl)-4H-1,2,4-triazol-3-yl)-1-(5-fluoropyrimidin-2-yl)-1-hydroxypropane-2-sulfonamide] | 4.1 nM
COc1cccc(OC)c1-n1c(NS(=O)(=O)CCc2ncc(Cl)cc2C2=CCN(C)CC2)nnc1-c1ccco1 [Example 214.0, 2-(5-Chloro-1′-methyl-1′,2′,3′,6′-tetrahydro-3,4′-bipyridin-2-yl)-N-(4-(2,6-dimethoxyphenyl)-5-(2-furanyl)-4H-1,2,4-triazol-3-yl)ethanesulfonamide] | 0.21 nM
COc1cccc(OC)c1-n1c(NS(=O)(=O)CCc2ncc(Cl)cc2C2=CCOCC2)nnc1-c1ccco1 [Example 215.0, 2-(5-Chloro-3-(3,6-dihydro-2H-pyran-4-yl)-2-pyridinyl)-N-(4-(2,6-dimethoxyphenyl)-5-(2-furanyl)-4H-1,2,4-triazol-3-yl)ethanesulfonamide] | 0.22 nM
COc1cccc(OC)c1-n1c(NS(=O)(=O)CCc2ncc(Cl)cc2CN2CCOCC2)nnc1-c1ccco1 [Example 219.0, 2-(5-Chloro-3-(4-morpholinylmethyl)-2-pyridinyl)-N-(4-(2,6-dimethoxyphenyl)-5-(2-furanyl)-4H-1,2,4-triazol-3-yl)ethanesulfonamide] | 0.26 nM
COc1cccc(OC)c1-n1c(NS(=O)(=O)CCc2ncc(Cl)cc2C2=CCNCC2)nnc1-c1ccco1 [Example 220.0, 2-(5-Chloro-1′,2′,3′,6′-tetrahydro-3,4′-bipyridin-2-yl)-N-(4-(2,6-dimethoxyphenyl)-5-(2-furanyl)-4H-1,2,4-triazol-3-yl)ethanesulfonamide] | 0.27 nM
COc1cccc(OC)c1-n1c(NS(=O)(=O)CCc2ncc(Cl)cc2-c2cccnc2)nnc1-c1ccco1 [Example 221.0, 2-(5-Chloro-3,3′-bipyridin-2-yl)-N-(4-(2,6-dimethoxyphenyl)-5-(2-furanyl)-4H-1,2,4-triazol-3-yl)ethanesulfonamide] | 0.3 nM

— US10736883B2, “Triazole furan compounds as agonists of the APJ receptor” (AMGEN INC., priority 2016, dated 2020)
